Experimental data published in paper PMC11089504 (Journal of medicinal chemistry, 2024).
Where “and” joins values, the source holds several entries; their conditions need not be identical. Equal values may be shown once.

What was measured:
[1] = system: T. cruzi CYP51; details: 2-fold molar excess over the enzyme ref 61; cited from earlier work
[2] = system: human CYP51; details: cited from earlier work
[3] = target: T1, A. castellanii CYP51 (Acanthamoeba castellanii, UniProt L8GJB3, V2A); details: full-length enzyme, type I spectral response
T1 sequence (L8GJB3 1-486 V2A): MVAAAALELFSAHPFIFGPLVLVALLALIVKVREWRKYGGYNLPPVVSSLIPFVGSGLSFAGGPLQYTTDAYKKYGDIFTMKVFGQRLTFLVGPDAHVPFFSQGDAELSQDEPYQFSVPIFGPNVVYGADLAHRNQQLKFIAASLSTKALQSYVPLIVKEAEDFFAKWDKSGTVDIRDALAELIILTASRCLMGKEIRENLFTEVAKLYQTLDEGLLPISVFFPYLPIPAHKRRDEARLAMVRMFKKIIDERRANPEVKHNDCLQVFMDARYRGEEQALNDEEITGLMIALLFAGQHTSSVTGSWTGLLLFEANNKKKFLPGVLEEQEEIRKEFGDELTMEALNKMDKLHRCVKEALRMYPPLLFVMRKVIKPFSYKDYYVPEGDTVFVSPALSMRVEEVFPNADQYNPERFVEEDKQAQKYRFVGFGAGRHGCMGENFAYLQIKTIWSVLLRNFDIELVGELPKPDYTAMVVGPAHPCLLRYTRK
T1 sequence (P00388 2-678 partner): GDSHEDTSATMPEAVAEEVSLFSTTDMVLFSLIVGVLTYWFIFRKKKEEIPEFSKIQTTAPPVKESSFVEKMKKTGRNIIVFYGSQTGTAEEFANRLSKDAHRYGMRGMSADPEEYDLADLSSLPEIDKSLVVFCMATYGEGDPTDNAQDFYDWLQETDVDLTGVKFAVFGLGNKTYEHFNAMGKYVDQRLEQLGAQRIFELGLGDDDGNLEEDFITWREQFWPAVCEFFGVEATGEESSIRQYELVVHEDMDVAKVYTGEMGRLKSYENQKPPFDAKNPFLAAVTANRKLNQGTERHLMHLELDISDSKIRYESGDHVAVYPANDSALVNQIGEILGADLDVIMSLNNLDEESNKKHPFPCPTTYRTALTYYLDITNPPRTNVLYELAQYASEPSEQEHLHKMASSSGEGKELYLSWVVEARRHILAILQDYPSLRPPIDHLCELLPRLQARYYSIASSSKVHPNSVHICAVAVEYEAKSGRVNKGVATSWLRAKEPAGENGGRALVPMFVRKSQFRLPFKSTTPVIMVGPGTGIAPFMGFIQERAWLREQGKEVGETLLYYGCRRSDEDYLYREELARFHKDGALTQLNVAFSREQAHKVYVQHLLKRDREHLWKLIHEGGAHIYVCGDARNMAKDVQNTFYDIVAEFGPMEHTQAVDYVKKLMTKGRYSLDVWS

[4] = target: T1, A. castellanii CYP51; details: obtusifoliol over lanosterol

Structure (SMILES)	inhibition of T. cruzi CYP51 [1]	binding to human CYP51 [2]	low- to high-spin transition in the heme iron [3]	fold higher catalytic efficiency than for lanosterol (substrate preference) [4]
O[C@@](Cn1cnnn1)(c1ccc(F)cc1F)C(F)(F)c1ccc(-c2ccc(OCC(F)(F)F)cc2)cn1 [VT1161, (R)-2-(2,4-difluorophenyl)-1,1-difluoro-3-(lH-tetrazol-1-yl)-1-(5-(4-(2,2,2-trifluoroethoxy)phenyl)pyridin-2-yl)propan-2-ol]	~ 95%	does not bind		
CC(C)=CCC[C@@H](C)[C@H]1CC[C@@]2(C)C3=C(CC[C@]12C)[C@@]1(C)CC[C@H](O)C(C)(C)[C@@H]1CC3 [lanosterol]			~15%	
C=C(CC[C@@H](C)[C@H]1CC[C@@]2(C)C3=C(CC[C@]12C)[C@@]1(C)CC[C@H](O)[C@@H](C)[C@@H]1CC3)C(C)C [obtusifoliol]			~ 60%	~ 100 fold and 100 fold
